Laboratory results from US12448389B2, “BRM targeting compounds and associated methods of use” (Prelude Therapeutics Incorporated, priority 2020, dated 2025).

How the values were obtained:
SMARCA4-HiBiT = target: T1, SMARCA4-HiBiT (Homo sapiens, UniProt P51532); test: SMARCA4 HiBiT degradation assay in HeLa cells; assay type: cell-based; settings: 18 hours incubation; for DC50: read-out: HeLa-HiBit-SM4 DC50; for Dmax: HeLa, read-out: HeLa-HiBit-SM4 Dmax (%)
T1 construct: SMARCA4-HiBiT knock-in Hela monoclonal cell (CS3023226); host or cells: HeLa monoclonal knock-in line (CRISPR HiBiT knock-in at the endogenous locus, heterozygous)
T1 sequence (P51532 whole entry): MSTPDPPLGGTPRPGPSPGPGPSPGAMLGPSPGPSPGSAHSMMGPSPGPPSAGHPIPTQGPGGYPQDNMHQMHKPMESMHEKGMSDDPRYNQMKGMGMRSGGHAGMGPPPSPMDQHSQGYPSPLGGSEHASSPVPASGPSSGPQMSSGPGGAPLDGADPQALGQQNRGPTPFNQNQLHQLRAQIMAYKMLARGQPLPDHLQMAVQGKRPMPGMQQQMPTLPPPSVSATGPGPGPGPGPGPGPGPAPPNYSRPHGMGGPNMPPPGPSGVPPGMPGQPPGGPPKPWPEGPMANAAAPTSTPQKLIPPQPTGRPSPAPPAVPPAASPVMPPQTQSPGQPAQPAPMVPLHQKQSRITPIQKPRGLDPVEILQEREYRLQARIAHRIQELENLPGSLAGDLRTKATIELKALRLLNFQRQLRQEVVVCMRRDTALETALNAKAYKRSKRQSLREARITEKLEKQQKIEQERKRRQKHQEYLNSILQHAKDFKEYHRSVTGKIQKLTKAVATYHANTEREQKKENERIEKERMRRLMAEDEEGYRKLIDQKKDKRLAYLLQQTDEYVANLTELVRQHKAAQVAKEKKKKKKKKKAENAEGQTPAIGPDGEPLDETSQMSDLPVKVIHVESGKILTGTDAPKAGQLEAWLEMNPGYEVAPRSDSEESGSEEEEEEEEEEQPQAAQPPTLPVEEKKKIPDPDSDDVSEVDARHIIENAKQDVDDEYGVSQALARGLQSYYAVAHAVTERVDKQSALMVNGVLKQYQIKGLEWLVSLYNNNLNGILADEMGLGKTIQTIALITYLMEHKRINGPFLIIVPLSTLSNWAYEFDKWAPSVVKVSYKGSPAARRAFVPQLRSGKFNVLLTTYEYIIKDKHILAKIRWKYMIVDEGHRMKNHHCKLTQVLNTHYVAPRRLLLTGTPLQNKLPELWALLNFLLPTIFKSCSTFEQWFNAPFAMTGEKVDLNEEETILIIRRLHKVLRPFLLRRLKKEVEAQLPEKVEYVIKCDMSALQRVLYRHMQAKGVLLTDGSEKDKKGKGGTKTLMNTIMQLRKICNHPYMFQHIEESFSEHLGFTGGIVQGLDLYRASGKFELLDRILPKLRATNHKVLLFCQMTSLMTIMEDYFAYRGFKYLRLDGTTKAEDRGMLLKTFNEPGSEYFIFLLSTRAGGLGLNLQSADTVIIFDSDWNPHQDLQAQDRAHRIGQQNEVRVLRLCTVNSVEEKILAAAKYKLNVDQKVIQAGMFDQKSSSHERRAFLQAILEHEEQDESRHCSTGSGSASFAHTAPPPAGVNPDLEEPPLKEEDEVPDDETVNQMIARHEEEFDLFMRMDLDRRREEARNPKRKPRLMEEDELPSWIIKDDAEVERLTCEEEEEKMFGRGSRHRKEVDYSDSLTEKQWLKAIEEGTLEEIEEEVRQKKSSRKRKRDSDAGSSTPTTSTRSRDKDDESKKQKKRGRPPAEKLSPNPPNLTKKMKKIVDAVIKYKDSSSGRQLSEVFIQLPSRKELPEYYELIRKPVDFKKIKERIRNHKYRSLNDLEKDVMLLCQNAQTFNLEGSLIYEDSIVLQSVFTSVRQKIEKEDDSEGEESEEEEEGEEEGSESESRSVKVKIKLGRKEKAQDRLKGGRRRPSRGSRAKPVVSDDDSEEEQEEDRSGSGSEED
Summary of the method: (§1)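 HeLa monoclonal lines with heterozygous HiBiT knock-in were seeded at 2500 cells/well in EMEM with 10% FBS and treated with compound for 18 h at 37 °C. Remaining tagged protein was measured by Nano-Glo HiBiT lytic luminescence after 30–60 min at RT, and values came from curve fitting.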

SMARCA2-HiBiT = target: T2, SMARCA2-HiBiT (Homo sapiens, UniProt P51531); test: SMARCA2 HiBiT degradation assay in HeLa cells; assay type: cell-based; settings: 18 hours incubation; for DC50: read-out: HeLa_HiBit-SM2 DC50; for Dmax: HeLa, read-out: HeLa-HiBit-SM2 Dmax (%)
T2 construct: SMARCA2-HiBiT knock-in Hela monoclonal cell (CS302366); host or cells: HeLa monoclonal knock-in line (CRISPR HiBiT knock-in at the endogenous locus, heterozygous)
T2 sequence (P51531 whole entry): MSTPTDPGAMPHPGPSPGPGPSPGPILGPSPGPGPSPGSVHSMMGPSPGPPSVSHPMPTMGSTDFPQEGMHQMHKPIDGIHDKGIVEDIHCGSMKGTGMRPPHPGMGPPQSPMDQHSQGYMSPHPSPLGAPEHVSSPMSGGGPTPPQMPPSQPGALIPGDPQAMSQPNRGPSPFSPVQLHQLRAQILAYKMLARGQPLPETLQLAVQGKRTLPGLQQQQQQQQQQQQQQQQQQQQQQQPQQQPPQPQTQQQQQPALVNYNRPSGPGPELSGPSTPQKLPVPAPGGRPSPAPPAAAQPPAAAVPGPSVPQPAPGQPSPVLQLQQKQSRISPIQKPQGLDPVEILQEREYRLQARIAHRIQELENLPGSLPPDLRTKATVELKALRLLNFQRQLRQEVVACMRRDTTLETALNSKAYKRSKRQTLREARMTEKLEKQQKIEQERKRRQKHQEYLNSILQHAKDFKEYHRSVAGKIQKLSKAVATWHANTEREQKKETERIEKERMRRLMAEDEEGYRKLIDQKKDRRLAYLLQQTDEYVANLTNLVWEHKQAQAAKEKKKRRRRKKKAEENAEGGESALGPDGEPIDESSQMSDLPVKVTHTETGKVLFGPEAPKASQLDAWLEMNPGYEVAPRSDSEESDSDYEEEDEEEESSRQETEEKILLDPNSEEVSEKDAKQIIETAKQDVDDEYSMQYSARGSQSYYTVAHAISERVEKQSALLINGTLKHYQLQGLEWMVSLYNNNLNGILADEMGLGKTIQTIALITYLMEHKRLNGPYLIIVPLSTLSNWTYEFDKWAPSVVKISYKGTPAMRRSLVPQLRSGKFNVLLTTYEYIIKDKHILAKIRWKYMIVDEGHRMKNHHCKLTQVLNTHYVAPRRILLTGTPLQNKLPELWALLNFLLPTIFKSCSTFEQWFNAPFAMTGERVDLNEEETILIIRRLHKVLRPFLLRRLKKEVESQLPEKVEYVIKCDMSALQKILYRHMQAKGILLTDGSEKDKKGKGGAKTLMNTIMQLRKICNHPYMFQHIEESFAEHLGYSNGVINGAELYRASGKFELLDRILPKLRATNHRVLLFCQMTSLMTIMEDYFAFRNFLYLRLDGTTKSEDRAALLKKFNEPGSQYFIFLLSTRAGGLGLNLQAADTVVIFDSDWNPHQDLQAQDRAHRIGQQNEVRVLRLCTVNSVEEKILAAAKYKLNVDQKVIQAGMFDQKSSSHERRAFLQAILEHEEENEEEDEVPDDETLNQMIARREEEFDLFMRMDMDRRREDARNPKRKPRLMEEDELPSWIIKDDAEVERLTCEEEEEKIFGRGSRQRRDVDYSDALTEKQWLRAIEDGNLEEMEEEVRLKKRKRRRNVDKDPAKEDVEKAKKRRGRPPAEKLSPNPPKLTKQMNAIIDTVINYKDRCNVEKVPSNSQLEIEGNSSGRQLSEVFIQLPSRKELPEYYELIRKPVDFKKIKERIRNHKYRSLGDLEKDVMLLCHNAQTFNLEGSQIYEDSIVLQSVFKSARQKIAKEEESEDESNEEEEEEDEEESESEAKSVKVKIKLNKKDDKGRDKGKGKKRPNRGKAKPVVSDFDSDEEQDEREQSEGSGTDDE
Summary of the method: as §1

Row | SMILES | DC50 (SMARCA4-HiBiT) [nM] | Dmax (SMARCA4-HiBiT) [%] | DC50 (SMARCA2-HiBiT) [nM] | Dmax (SMARCA2-HiBiT) [%] | HeLa-HiBit-SM4 Dmax (%) (SMARCA4-HiBiT) | HeLa-HiBit-SM2 Dmax (%) (SMARCA2-HiBiT)
1 | O=C1CCC(N2Cc3ccc(N4CCC(CN5Cc6cnc(N7CCN8c9cc(-c%10ccccc%10O)nnc9NC[C@H]8C7)nc6C5)CC4)cc3C2=O)C(=O)N1 (stereo partly drawn) [Example 61, 3-(6-(4-((2-((S)-2-(2-hydroxyphenyl)-5,6,6a,7,9,10-hexahydro-8H-pyrazino[1′,2′:4,5]pyrazino[2,3-c]pyridazin-8-yl)-5,7-dihydro-6H-pyrrolo[3,4-d]pyrimidin-6-yl)methyl)piperidin-1-yl)-1-oxoisoindolin-2-yl)piperidine-2,6-dione] | < 10 | ≤ 50 | < 10 | ≤ 50 | – | –
2 | C[C@@H]1C[C@H](CN2CCC(CN3CCN4c5cc(-c6ccccc6O)nnc5NC[C@H]4C3)CC2)CCN1c1cc2c(cc1F)C(=O)N(C1CCC(=O)NC1=O)C2=O (stereo partly drawn) [Example 174, 2-(2,6-dioxopiperidin-3-yl)-5-fluoro-6-[(2R,4R)-4-[[4-[[(10S)-4-(2-hydroxyphenyl)-1,5,6,8,12-pentazatricyclo[8.4.0.02,7]tetradeca-2,4,6-trien-12-yl]methyl]piperidin-1-yl]methyl]-2-methylpiperidin-1-yl] isoindole-1,3-dione] | < 10 | > 85 | < 10 | > 85 | – | –
3 | O=C1CCC(n2ccc3cc(N4CCC(CN5CCC(N6CCN7c8cc(-c9ccccc9O)nnc8NC[C@H]7C6)CC5)CC4)ccc3c2=O)C(=O)N1 (stereo partly drawn) [Example 26, 3-(6-(4-((4-((S)-2-(2-hydroxyphenyl)-5,6,6a,7,9,10-hexahydro-8H-pyrazino [1′,2′:4,5]pyrazino[2,3-c]pyridazin-8-yl)piperidin-1-yl)methyl)piperidin-1-yl)-1-oxoisoquinolin-2(1H)-yl)piperidine-2,6-dione] | < 10 | > 85 | < 10 | > 85 | – | –
4 | O=C1CCC(N2C(=O)c3ccc(N4CC[C@H](CN5CCC(C(=O)N6CCN7c8cc(-c9ccccc9O)nnc8NC[C@H]7C6)CC5)[C@@H](F)C4)cc3C2=O)C(=O)N1 (stereo partly drawn) [Example 202, 2-(2,6-dioxopiperidin-3-yl)-5-[(3R,4R)-3-fluoro-4-[[4-[(10S)-4-(2-hydroxyphenyl)-1,5,6,8,12-pentazatricyclo [8.4.0.02,7]tetradeca-2(7),3,5-trien-12-carbonyl]piperidin-1-yl]methyl]piperidin-1-yl]isoindole-1,3-dione] | 10 to 100 | 75 to 85 | < 10 | > 85 | – | –
5 | CC1CN(CC2CCN(c3ccc4c(c3)C(=O)N(C3CCC(=O)NC3=O)C4)CC2)CCC1C(=O)N1CCN2c3cc(-c4ccccc4O)nnc3NC[C@H]2C1 (stereo partly drawn) [Example 264, 3-(6-(4-((4-((S)-2-(2-hydroxyphenyl)-6,6a,7,8,9,10-hexahydro-5H-pyrazino[1′,2′:4,5]pyrazino[2,3-c]pyridazine-8-carbonyl)-3-methylpiperidin-1-yl)methyl)piperidin-1-yl)-1-oxoisoindolin-2-yl)piperidine-2,6-dione] | < 10 | 75 to 85 | < 10 | > 85 | – | –
6 | O=C1CCC(N2C(=O)c3cc(F)c(N4CCC(CN5CCC(CN6CCN7c8cc(-c9ccccc9O)nnc8NC[C@H]7C6)CC5)CC4)cc3C2=O)C(=O)N1 (stereo partly drawn) [Example 164, 2-(2,6-dioxopiperidin-3-yl)-5-fluoro-6-[4-[[4-[[(10S)-4-(2-hydroxyphenyl)-1,5,6,8,12-pentazatricyclo[8.4.0.02,7]tetradeca-2,4,6-trien-12-yl]methyl]piperidin-1-yl]methyl]piperidin-1-yl]isoindole-1,3-dione] | < 10 | 75 to 85 | < 10 | > 85 | – | –
7 | CC(COc1ccc2c(c1)CN([C@@H]1CCC(=O)NC1=O)C2=O)N1CCC(N2CCN3c4cc(-c5ccccc5O)nnc4NC[C@H]3C2)CC1 (stereo partly drawn) [Example 215, (3R)-3-(5-(2-(4-((S)-2-(2-hydroxyphenyl)-5,6,6a,7,9,10-hexahydro-8H-pyrazino[1′,2′:4,5]pyrazino[2,3-c]pyridazin-8-yl)piperidin-1-yl)propoxy)-1-oxoisoindolin-2-yl)piperidine-2,6-dione] | 10 to 100 | 50 to 75 | < 10 | 50 to 75 | – | –
8 | O=C1CCC(N2Cc3ccc(N4CCC(CN5CCN(C(=O)N6CCN7c8cc(-c9ccccc9O)nnc8NC[C@H]7C6)C(CO)C5)CC4)cc3C2=O)C(=O)N1 (stereo partly drawn) [Example 110, 3-(6-(4-((3-(hydroxymethyl)-4-((S)-2-(2-hydroxyphenyl)-6,6a,7,8,9,10-hexahydro-5H-pyrazino[1′,2′:4,5]pyrazino[2,3-c]pyridazine-8-carbonyl)piperazin-1-yl)methyl)piperidin-1-yl)-1-oxoisoindolin-2-yl)piperidine-2,6-dione] | 10 to 100 | 75 to 85 | < 10 | > 85 | – | –

Now from value to molecule:

Row | DC50 (SMARCA4-HiBiT) [nM] | Dmax (SMARCA4-HiBiT) [%] | DC50 (SMARCA2-HiBiT) [nM] | Dmax (SMARCA2-HiBiT) [%] | HeLa-HiBit-SM4 Dmax (%) (SMARCA4-HiBiT) | HeLa-HiBit-SM2 Dmax (%) (SMARCA2-HiBiT) | SMILES
9 | < 10 | > 85 | < 10 | > 85 | – | – | O=C1CCC(N2Cc3ccc(N4CC[C@H](CN5C[C@@H]6[C@H](C5)[C@H]6CN5CCN6c7cc(-c8ccccc8O)nnc7NC[C@H]6C5)[C@@H](F)C4)cc3C2=O)C(=O)N1 (stereo partly drawn) [Example 203, 3-(6-((3R,4R)-3-fluoro-4-(((1R,5S,6R)-6-(((S)-2-(2-hydroxyphenyl)-5,6,6a,7,9,10-hexahydro-8H-pyrazino[1′,2′:4,5]pyrazino[2,3-c]pyridazin-8-yl)methyl)-3-azabicyclo[3.1.0]hexan-3-yl)methyl)piperidin-1-yl)-1-oxoisoindolin-2-yl)piperidine-2,6-dione]
10 | < 10 | 50 to 75 | < 10 | 75 to 85 | – | – | O=C1CCC(N2C(=O)c3ccc(N4CC(CN5CCN(C(=O)N6CCN7c8cc(-c9ccccc9O)nnc8NC[C@H]7C6)CC5)C4)cc3C2=O)C(=O)N1 (stereo partly drawn) [Example 82, 2-(2,6-dioxopiperidin-3-yl)-5-(3-((4-((S)-2-(2-hydroxyphenyl)-6,6a,7,8,9,10-hexahydro-511-pyrazino[1′,2′:4,5]pyrazino[2,3-c]pyridazine-8-carbonyl)piperazin-1-yl)methyl)azetidin-1-yl) isoindoline-1,3-dione]
11 | < 10 | 50 to 75 | < 10 | > 85 | – | – | O=C1CCC(N2C(=O)c3ccc(N4CCC(CN5C[C@@H]6[C@H](C5)[C@@H]6CN5CCN6c7cc(-c8ccccc8O)nnc7NC[C@H]6C5)CC4)cc3C2=O)C(=O)N1 (stereo partly drawn) [Example 43, 2-(2,6-dioxopiperidin-3-yl)-5-(4-(((1R,5S,6s)-6-(((S)-2-(2-hydroxyphenyl)-5,6,6a,7,9,10-hexahydro-8H-pyrazino[1′,2′:4,5]pyrazino[2,3-c]pyridazin-8-yl)methyl)-3-azabicyclo[3.1.0]hexan-3-yl)methyl)piperidin-1-yl)isoindoline-1,3-dione]
12 | < 10 | – | < 10 | – | C (C=50%<Dmax<=75%) | A (A=Dmax>85%) | CC1CN(c2ccc3c(c2)C(=O)N(C2CCC(=O)NC2=O)C3=O)CCC1CN1C[C@@H]2[C@H](C1)[C@H]2CN1CCN2c3cc(-c4ccccc4O)nnc3NC[C@H]2C1 (stereo partly drawn) [Example 198, 2-(2,6-dioxopiperidin-3-yl)-5-(4-(((1R,5S,6r)-6-(((S)-2-(2-hydroxyphenyl)-5,6,6a,7,9,10-hexahydro-8H-pyrazino[1′,2′:4,5]pyrazino[2,3-c]pyridazin-8-yl)methyl)-3-azabicyclo[3.1.0]hexan-3-yl)methyl)-3-methylpiperidin-1-yl)isoindoline-1,3-dione]
13 | 10 to 100 | 50 to 75 | < 10 | > 85 | – | – | CC1(CN2C[C@@H]3[C@@H](CN4CCN5c6cc(-c7ccccc7O)nnc6NC[C@H]5C4)[C@@H]3C2)CCN(c2ccc3c(c2)C(=O)N(C2CCC(=O)NC2=O)C3=O)CC1 (stereo partly drawn) [Example 91, 2-(2,6-dioxopiperidin-3-yl)-5-(4-(((1R,5S,6r)-6-(((S)-2-(2-hydroxyphenyl)-5,6,6a,7,9,10-hexahydro-8H-pyrazino[1′,2′:4,5]pyrazino[2,3-c]pyridazin-8-yl)methyl)-3-azabicyclo[3.1.0]hexan-3-yl)methyl)-4-methylpiperidin-1-yl)isoindoline-1,3-dione]
14 | < 10 | 75 to 85 | < 10 | > 85 | – | – | O=C1CCC(N2C(=O)c3ccc(N4CCC(CN5CC6CC(CN7CCN8c9cc(-c%10ccccc%10O)nnc9NC[C@H]8C7)C6C5)C(F)(F)C4)cc3C2=O)C(=O)N1 (stereo partly drawn) [Example 188, 5-[3,3-difluoro-4-[[6-[[(10S)-4-(2-hydroxyphenyl)-1,5,6,8,12-pentazatricyclo[8.4.0.02,7]tetradeca-2(7),3,5-trien-12-yl]methyl]-3-azabicyclo[3.2.0]heptan-3-yl]methyl]piperidin-1-yl]-2-(2,6-dioxopiperidin-3-yl)isoindole-1,3-dione]
15 | < 10 | 75 to 85 | < 10 | 75 to 85 | – | – | O=C1CCC(N2C(=O)c3ccc(N4CC(CCN5CCC(CN6CCN7c8cc(-c9ccccc9O)nnc8NC[C@H]7C6)CC5)C4)cc3C2=O)C(=O)N1 (stereo partly drawn) [Example 275, 2-(2,6-dioxopiperidin-3-yl)-5-(3-(2-(4-(((S)-2-(2-hydroxyphenyl)-5,6,6a,7,9,10-hexahydro-8H-pyrazino[1′,2′:4,5]pyrazino[2,3-c]pyridazin-8-yl)methyl)piperidin-1-yl)ethyl)azetidin-1-yl)isoindoline-1,3-dione]
